Source: US20240374692A1, “A NOVEL ACYLATED INSULIN ANALOG” (SUNSHINE LAKE PHARMA CO., LTD., priority 2021, published 2024)
Read-outs that look alike come from different tables or passages of the source.

How the values were obtained:
[1] = rat, in vivo, iv, 10 nmol/kg
normal C57BL/6 mice = assay: Hypoglycemic effect, single subcutaneous administration to normal C57BL/6 mice; format: in vivo; parameters: blood glucose: unit not given here; details: for blood glucose: Mean ± SEM, n = 6
In short: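 Normal C57BL/6 mice, grouped by random blood glucose and body weight, received a single subcutaneous dose of compound or PBS vehicle and were not fasted. Random blood glucose was measured before dosing and at 0.25, 0.5, 1, 2, 4, 6, 8, 10, 24, 48, 54, 72 and 96 h. Data are Mean±SEM.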

[2] = mouse, in vivo, sc, 10 nmol/kg
[3] = system: STZ-induced type I diabetes mellitus (T1DM) C57BL/6 mice; assay: Hypoglycemic effect, repeated administration (three times) to STZ-induced T1DM C57BL/6 mice (Example 6); format: in vivo; parameters: key to random blood glucose: blood glucose in mmol/L; details: for random blood glucose: 500 nmol/Kg S.C. three times, Mean ± SEM, n = 7
Experimental: SPF grade C57BL/6 mice were reared in a suitable rearing box in a barrier environment, with a rearing temperature of 20-26° C., a humidity of 40-70%, a time between day and night of 12 h/12 h, and the mice had free access to standard food and autoclaved sterilization water. After the 3-day quarantine period and the 2-day acclimation period, the mice were fasted for 12 h, and the mice were injected intraperitoneally with streptozotocin solution (STZ, 13 mg/mL, in citrate buffer) at 130 mg/kg. 3 Days and 7 days after administration of streptozotocin, random blood glucose and fasting blood glucose were detected, and the random blood glucose value above 25 mmol/L and fasting blood glucose value above 11.1 mmol/L were selected as T1DM model mice for follow-up experiments. On the day before administration, random blood glucose was monitored and mice were weighed. Mice were divided into 6 groups according to random blood glucose and body weight.
Subcutaneous administration (S.C.) was used to administer the corresponding vehicle or drug, once every 4-5 days, for a total of 3 administrations. During the experiment, the animals were allowed to eat and drink water freely. The random blood glucose before the first administration, and 0.25, 0.5, 1, 2, 4, 6, 8, 10, 24, 48, 72, and 96 h after administration were assessed, as well as the random blood glucose before the second and third administration, and 0.5, 1, 2, 6, 24, 48, 72, 96 and 120 h after administration.
All raw data were entered into Excel files and expressed as Mean±SEM. Statistical analysis of data was performed using Graphpad Prism 7.0 software, one-way or two-way ANOVA comparison method, and P<0.05 was used as the criterion for significant differences.

insulin receptor B = target: T1, insulin receptor B (Homo sapiens, UniProt P06213); assay: Insulin receptor B autophosphorylation in transfected cells (Cisbio Phospho-IR beta Tyr1150/1151 kit); format: cell-based; details: for Relative HI activity: relative to human insulin
T1 construct: expressed in transfected cells
In short: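 Cells serum-starved ~4 h, then exposed 5 min at 37 °C, 5% CO2 to insulin derivative dilutions in 0.6% casein/EDTA/DPBS, optionally with 1.5% HSA to probe albumin binding. Tyr1150/1151 phosphorylation in lysate measured by HTRF kit; relative activity (%) from nonlinear curve fit.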

[4] = single S.C., Degludec 200 nmol/Kg, others 1400 nmol/Kg

T1 sequence (P06213 28-758 limits assumed): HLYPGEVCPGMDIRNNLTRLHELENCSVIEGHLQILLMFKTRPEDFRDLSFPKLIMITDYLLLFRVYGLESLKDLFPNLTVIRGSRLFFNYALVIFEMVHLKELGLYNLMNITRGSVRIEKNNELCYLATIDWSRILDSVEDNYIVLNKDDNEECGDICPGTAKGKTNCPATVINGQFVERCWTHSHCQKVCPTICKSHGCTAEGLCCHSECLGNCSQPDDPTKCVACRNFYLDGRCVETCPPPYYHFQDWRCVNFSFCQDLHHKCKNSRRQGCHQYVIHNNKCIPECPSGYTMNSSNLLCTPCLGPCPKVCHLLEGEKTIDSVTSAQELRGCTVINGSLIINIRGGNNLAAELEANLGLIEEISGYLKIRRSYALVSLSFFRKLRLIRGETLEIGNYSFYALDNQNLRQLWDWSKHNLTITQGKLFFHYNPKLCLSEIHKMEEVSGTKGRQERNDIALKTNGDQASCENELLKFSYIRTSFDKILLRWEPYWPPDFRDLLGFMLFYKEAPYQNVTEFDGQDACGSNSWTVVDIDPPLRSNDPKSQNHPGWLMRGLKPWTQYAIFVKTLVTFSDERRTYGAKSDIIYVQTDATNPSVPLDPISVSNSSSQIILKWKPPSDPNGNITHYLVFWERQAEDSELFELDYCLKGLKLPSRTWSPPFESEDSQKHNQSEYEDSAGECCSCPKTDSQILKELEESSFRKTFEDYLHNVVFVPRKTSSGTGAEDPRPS
T1 sequence (P06213 763-1382 partner limits assumed): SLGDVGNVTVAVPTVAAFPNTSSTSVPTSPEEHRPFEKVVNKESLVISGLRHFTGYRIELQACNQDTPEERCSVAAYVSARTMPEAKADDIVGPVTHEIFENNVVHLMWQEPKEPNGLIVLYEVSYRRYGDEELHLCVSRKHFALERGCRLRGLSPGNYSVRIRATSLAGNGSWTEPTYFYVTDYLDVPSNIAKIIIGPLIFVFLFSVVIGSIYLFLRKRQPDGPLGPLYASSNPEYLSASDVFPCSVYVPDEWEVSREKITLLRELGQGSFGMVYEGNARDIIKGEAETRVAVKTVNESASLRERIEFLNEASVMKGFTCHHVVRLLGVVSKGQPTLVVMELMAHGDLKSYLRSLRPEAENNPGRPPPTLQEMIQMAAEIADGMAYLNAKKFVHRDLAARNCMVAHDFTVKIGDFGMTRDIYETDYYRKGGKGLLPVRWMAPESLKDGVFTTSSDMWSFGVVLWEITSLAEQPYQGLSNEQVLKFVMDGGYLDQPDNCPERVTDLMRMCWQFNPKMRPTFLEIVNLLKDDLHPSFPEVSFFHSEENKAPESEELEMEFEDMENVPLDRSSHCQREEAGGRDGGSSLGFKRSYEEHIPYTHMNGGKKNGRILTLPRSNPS

In the case of “A14E, B16E, B25H, B29K(N(ε)-COOH(CH2)18CO-L-Lys-CO(CH2)2CO—(OEG)2), desB30 human insulin analog [Insulin-a3]”, the AUClast [1] is reported as 9170 ng·h/mL, the T1/2 [1] is reported as 11.2 ± 1.9 h and the blood glucose (normal C57BL/6 mice; 0 h (before administration), single S.C., Degludec 200 nmol/Kg, others 1400 nmol/Kg) is reported as 8.0 ± 1.0. The blood glucose (normal C57BL/6 mice; 0.25 h after single S.C., Degludec 200 nmol/Kg, others 1400 nmol/Kg) was 8.6 ± 1.0, the blood glucose (normal C57BL/6 mice; 0.5 h after single S.C., Degludec 200 nmol/Kg, others 1400 nmol/Kg) was 6.2 ± 0.4 and the “blood glucose compared with the control group” value (normal C57BL/6 mice; 1 h after single S.C. administration) was “decreased significantly”. For the same substance, the blood glucose (normal C57BL/6 mice; 1 h after single S.C., Degludec 200 nmol/Kg, others 1400 nmol/Kg) was 4.9 ± 0.8, the blood glucose (normal C57BL/6 mice; 2 h after single S.C., Degludec 200 nmol/Kg, others 1400 nmol/Kg) was 4.5 ± 1.0 and the blood glucose (normal C57BL/6 mice; 4 h after single S.C., Degludec 200 nmol/Kg, others 1400 nmol/Kg) was 3.9 ± 0.7. For the same substance, the blood glucose (normal C57BL/6 mice; 6 h after single S.C., Degludec 200 nmol/Kg, others 1400 nmol/Kg) was 3.7 ± 0.5, the blood glucose (normal C57BL/6 mice; 8 h after single S.C., Degludec 200 nmol/Kg, others 1400 nmol/Kg) was 3.8 ± 0.5 and the blood glucose (normal C57BL/6 mice; 10 h after single S.C., Degludec 200 nmol/Kg, others 1400 nmol/Kg) was 3.5 ± 0.7. It also gave a blood glucose (normal C57BL/6 mice; 24 h after single S.C., Degludec 200 nmol/Kg, others 1400 nmol/Kg) of 2.9 ± 1.0, a blood glucose (normal C57BL/6 mice; 48 h after single S.C., Degludec 200 nmol/Kg, others 1400 nmol/Kg) of 4.2 ± 2.0 and a blood glucose (normal C57BL/6 mice; 72 h after single S.C., Degludec 200 nmol/Kg, others 1400 nmol/Kg) of 5.4 ± 2.6. The blood glucose (normal C57BL/6 mice; 96 h after single S.C., Degludec 200 nmol/Kg, others 1400 nmol/Kg) was 8.8 ± 1.1, the “effect on blood glucose control compared with Icodec” value (normal C57BL/6 mice; single S.C. 1400 nmol/Kg) was “slightly worse” and the “effective blood glucose control time” value (normal C57BL/6 mice; [4]) was 96 h. For the same substance, the “time after administration at which blood glucose reached the lowest level” value (normal C57BL/6 mice; [4]) was 24 h, the AUClast [2] was 12300 ng·h/mL and the T1/2 [2] was 18.6 h. For the same substance, the “effective glucose control time” value ([3]; 500 nmol/Kg S.C.) was 96 to 120 h, the random blood glucose ([3]; Day 0 (1st)) was 31.8 ± 3.2 and the random blood glucose ([3]; Day 1) was 20.7 ± 5.2. The random blood glucose ([3]; Day 4 (2nd)) was 29.7 ± 3.7, the random blood glucose ([3]; Day 5) was 20.1 ± 5.4 and the random blood glucose ([3]; Day 9 (3rd)) was 27.7 ± 6.2. The random blood glucose ([3]; Day 10) was 16.0 ± 9.4, the random blood glucose ([3]; Day 14) was 27.4 ± 6.3 and the “time after administration at which blood glucose returned to normal level” value ([3]; 500 nmol/Kg S.C., after the first and second administrations) was 96 h. The “time after administration at which blood glucose returned to normal level” value ([3]; 500 nmol/Kg S.C., after the third administration) was 120 h, the “time after each administration at which blood glucose reached the lowest level” value ([3]; Icodec 250, 500 and 1000 nmol/kg, Insulin-a3 and Insulin-a10 500 nmol/Kg) was 24 h and the “glucose control effect compared with the Icodec-500 nmol/kg group” value ([3]; test drug 500 nmol/Kg S.C.) was “better”. For the same substance, the “glucose control effect compared with the Icodec-1000 nmol/kg group” value ([3]; test drug 500 nmol/Kg S.C.) was “slightly worse”, the EC50 (insulin receptor B; 0% HSA) was 213 nM and the “Relative HI activity” value (insulin receptor B; 0% HSA) was 0.58%. The EC50 (insulin receptor B; 1.5% HSA) was 4490 nM, the “Relative 0% HSA activity” value (insulin receptor B; 1.5% HSA relative to 0% HSA) was 5.86% and the “Relative HI activity” value (insulin receptor B; 1.5% HSA) was 0.06%.
